Test system: Mtb PrcAB-OG
Assay: biochemical
Type: biochemical, Mycobacterium tuberculosis

## CSc1sc(C)cc1-c1nsc(=O)o1 [GL5]
  Selectivity: 63.8

From US20110118274A1, “PROTEASOME INHIBITORS AND THEIR USE IN TREATING PATHOGEN INFECTION AND CANCER” (CORNELL RESEARCH FOUNDATION, INC., priority 2007, published 2011)
